33 molecules from publication PMC9933715 (Antimicrobial Agents and Chemotherapy, 2023) can be followed below.

Series [1] relates to ZIKV-R2A (strain FSS13025). Briefly: microbe, parasite or virus in culture. The series is classed as cell-based. To be noted: Zika virus, Huh7.5, 48 h, read-out: ZIKV-R2A replication (fold DMSO) Mean.
Series [2] concerns DENV-R2A (Rluc-expressing DENV, serotype 2 strain 16681). Briefly: microbe, parasite or virus in culture. The series is classed as cell-based, Dengue virus. To be noted: Dengue virus, Huh7.5, 48 h, read-out: DENV-R2A replication (fold DMSO) Mean, deconvolution screen, singletons, 50 µM, Huh7.5, 2 days postinfection.
The test system of another series is Huh7.5 cells. Briefly: Cell viability, CellTiter-Glo luminescent assay. To be noted: deconvolution screen, singletons, 50 µM, uninfected Huh7.5.

Consider `CC(=O)c1ccc2cc(O)ccc2c1` [Compound 8X-0242, CC(=O)c1ccc2cc(O)ccc2c1], for which the activity at 50 µM was determined as 81% in series [1] and 86% in series [2]. Moreover, the “Cell viability (fold DMSO) Mean” value with Huh7.5 cells is listed as 1.00 fold DMSO.
Take `COc1ccccc1N1CCNC(C)C1` (stereo not drawn) [SS-2433, COc1ccccc1N2CCNC(C)C2]: the activity at 50 µM was 94% in series [1] and 82% in series [2]. Moreover, the “Cell viability (fold DMSO) Mean” value in the series on Huh7.5 cells was found to be 1.09 fold DMSO.
`Oc1ccc2[nH]ccc2c1` [PS-3277, Oc1ccc2[nH]ccc2c1]: the activity at 50 µM in series [1] came out at 74%; in series [2] it was 52%. The “Cell viability (fold DMSO) Mean” value with Huh7.5 cells stood at 1.23 fold DMSO.
Take `Cc1ccc(C2CNCCN2)cc1` (stereo not drawn) [FS-3294, Cc1ccc(cc1)C2CNCCN2]: the activity at 50 µM in series [1] came out at 96%; in series [2] it was 74%. In the series on Huh7.5 cells, the “Cell viability (fold DMSO) Mean” value came out at 1.08 fold DMSO.
As for `Fc1cc(F)cc(-c2ccno2)c1` [PS-6845, Fc1cc(F)cc(c1)c2oncc2], the activity at 50 µM amounted to 111% in series [1] and 100% in series [2]. Further, the “Cell viability (fold DMSO) Mean” value in the series with Huh7.5 cells amounted to 1.15 fold DMSO.
Regarding `CC(C)(C)OC(=O)N1CCCCn2nc(CO)cc2C1` [Compound 10X-0603, CC(C)(C)OC(=O)N1CCCCn2nc(CO)cc2C1], the activity at 50 µM in series [1] amounted to 104%; in series [2], 106%. In addition, the “Cell viability (fold DMSO) Mean” value in the series on Huh7.5 cells was 1.07 fold DMSO.
As for `CN1CCN(c2ccccc2CN)CC1` [PS-3674, CN1CCN(CC1)c2ccccc2CN], the results for the activity at 50 µM in series [1] and in series [2] were 89% and 60%, respectively. Further, in the series with Huh7.5 cells, the “Cell viability (fold DMSO) Mean” value was 0.94 fold DMSO.
On to `Nc1cccnc1Cl` [PS-5762, Nc1cccnc1Cl], for which the results for the activity at 50 µM in series [1] and in series [2] were 109% and 106%, respectively. The “Cell viability (fold DMSO) Mean” value with Huh7.5 cells came out at 1.10 fold DMSO.
Regarding `c1ccn(-c2cnccn2)c1` [Compound 6N-039, c1ccn(c1)c2cnccn2], the results for the activity at 50 µM in series [1] and in series [2] were 99% and 95%, respectively. Moreover, the “Cell viability (fold DMSO) Mean” value with Huh7.5 cells worked out at 0.93 fold DMSO.
Turning to `OC[C@@H]1Cc2ccccc2CN1` [PS-6029, OC[C@@H]1Cc2ccccc2CN1], the activity at 50 µM in series [1] turned out to be 114%; in series [2], 99%. Besides, the “Cell viability (fold DMSO) Mean” value in the series on Huh7.5 cells is 0.97 fold DMSO.
As for `O=C(O)Cc1ccc(O)cc1` [PS-5568, OC(=O)Cc1ccc(O)cc1], the activity at 50 µM in series [1] is 103%; in series [2] it was 97%. Also, the “Cell viability (fold DMSO) Mean” value in the series on Huh7.5 cells is recorded as 0.98 fold DMSO.
For `Nc1oncc1-c1ccc(Cl)cc1` [FS-2048, Nc1oncc1c2ccc(Cl)cc2], the activity at 50 µM in series [1] came out at 61%; in series [2] it was 57%. Also, the “Cell viability (fold DMSO) Mean” value in the series on Huh7.5 cells turned out to be 0.90 fold DMSO.
For `CNC(=O)c1cc(Br)c[nH]1` [Compound 10Y-0822, CNC(=O)c1cc(Br)c[nH]1], the values for the activity at 50 µM in series [1] and in series [2] were 77% and 75%, respectively. Besides, the “Cell viability (fold DMSO) Mean” value in the series on Huh7.5 cells was determined as 0.89 fold DMSO.
The corresponding values for `OCC1CN(Cc2ccccc2)CCO1` (stereo not drawn) [PS-4274, OCC1CN(Cc2ccccc2)CCO1] are 116%, 100% and 1.11 fold DMSO.
Turning to `CNC(=O)Nc1ccc(F)c(C)c1` [MS-0046, CNC(=O)Nc1ccc(F)c(C)c1], the activity at 50 µM in series [1] is 97%; in series [2], 96%. Besides, the “Cell viability (fold DMSO) Mean” value with Huh7.5 cells was 1.00 fold DMSO.
`Cc1ccc(Br)c(N)c1` [PS-5668, Cc1ccc(Br)c(N)c1]: the activity at 50 µM in series [1] stood at 101%; in series [2], 102%. In addition, in the series with Huh7.5 cells, the “Cell viability (fold DMSO) Mean” value amounted to 1.16 fold DMSO.
In the case of `Nc1cccc(Cl)c1` [PS-5280, Nc1cccc(Cl)c1], the figures for the activity at 50 µM in series [1] and in series [2] were 116% and 111%, respectively. Also, in the series on Huh7.5 cells, the “Cell viability (fold DMSO) Mean” value was found to be 0.98 fold DMSO.
With `O=C1CCCc2cc(O)ccc21` [MS-2425, Oc1ccc2C(=O)CCCc2c1], the activity at 50 µM in series [1] came out at 92%; in series [2], 98%. Besides, the “Cell viability (fold DMSO) Mean” value in the series with Huh7.5 cells is recorded as 1.05 fold DMSO.
The corresponding values for `Nc1cnccc1Cl` [PS-6061, Nc1cnccc1Cl] are 102%, 102% and 1.04 fold DMSO.
As to `OCc1cc2cc(Br)ccc2[nH]1` [GA-0936, OCc1cc2cc(Br)ccc2[nH]1], the activity at 50 µM stood at 63% in series [1] and 13% in series [2]. Also, the “Cell viability (fold DMSO) Mean” value in the series on Huh7.5 cells came out at 0.83 fold DMSO.
For the molecule `CN(C)C(=O)c1ccccc1Br` [PS-4942, CN(C)C(=O)c1ccccc1Br], the activity at 50 µM in series [1] came out at 112%; in series [2], 107%. The “Cell viability (fold DMSO) Mean” value with Huh7.5 cells is 1.07 fold DMSO.
As for `N#CCC(=O)Nc1ccccc1` [Compound 9B-046, O=C(CC#N)Nc1ccccc1], the activity at 50 µM is 104% in series [1] and 96% in series [2]. Further, in the series on Huh7.5 cells, the “Cell viability (fold DMSO) Mean” value amounted to 1.17 fold DMSO.
For `Nc1cncnc1` [SS-6051, Nc1cncnc1], the activity at 50 µM turned out to be 105% in series [1] and 104% in series [2]. Moreover, in the series on Huh7.5 cells, the “Cell viability (fold DMSO) Mean” value turned out to be 0.96 fold DMSO.
Consider `CCNC(=O)N1CCC(O)CC1` [SS-4002, CCNC(=O)N1CCC(O)CC1], for which the activity at 50 µM in series [1] came to 98%; in series [2] it was 103%. Moreover, the “Cell viability (fold DMSO) Mean” value in the series on Huh7.5 cells is on record as 1.05 fold DMSO.
As for `CC(=O)c1ccccc1-n1ccnc1` [Compound 1B-028, CC(=O)c1ccccc1n2ccnc2], the activity at 50 µM is 58% in series [1] and 59% in series [2]. In addition, the “Cell viability (fold DMSO) Mean” value with Huh7.5 cells was 0.78 fold DMSO.
Regarding `CC(=O)Nc1cc(C)ccc1F` [MS-0037, CC(=O)Nc1cc(C)ccc1F], the activity at 50 µM in series [1] is 114%; in series [2], 103%. Also, in the series on Huh7.5 cells, the “Cell viability (fold DMSO) Mean” value is reported as 1.28 fold DMSO.
As to `CN1C(=O)Cc2ccccc2C1=O` [Compound 10L-733, CN1C(=O)Cc2ccccc2C1=O], the activity at 50 µM turned out to be 114% in series [1] and 101% in series [2]. Besides, the “Cell viability (fold DMSO) Mean” value with Huh7.5 cells is on record as 0.94 fold DMSO.
Turning to `Nc1ccc(Cl)cc1Br` [PS-3798, Nc1ccc(Cl)cc1Br], the activity at 50 µM in series [1] is 111%; in series [2], 94%. Besides, the “Cell viability (fold DMSO) Mean” value in the series with Huh7.5 cells came to 0.99 fold DMSO.
As for `CCCC(=O)c1cccs1` [FS-1782, CCCC(=O)c1cccs1], the activity at 50 µM in series [1] and in series [2] was 104% in each case. In addition, the “Cell viability (fold DMSO) Mean” value in the series with Huh7.5 cells was found to be 1.02 fold DMSO.
Take `COc1ccc2cc[nH]c2n1` [SS-4327, COc1ccc2cc[nH]c2n1]: the activity at 50 µM was found to be 108% in series [1] and 98% in series [2]. Also, the “Cell viability (fold DMSO) Mean” value in the series with Huh7.5 cells was 1.01 fold DMSO.
Take `NC(=O)C1CCCNC1` (stereo not drawn) [PS-3699, NC(=O)C1CCCNC1]: the results for the activity at 50 µM in series [1] and in series [2] were 113% and 95%, respectively. In addition, the “Cell viability (fold DMSO) Mean” value with Huh7.5 cells was determined as 0.94 fold DMSO.
In the case of `CC(=O)Nc1ccc(OC(F)F)cc1` [PS-6506, CC(=O)Nc1ccc(OC(F)F)cc1], the activity at 50 µM is 110% in series [1] and 105% in series [2]. In the series with Huh7.5 cells, the “Cell viability (fold DMSO) Mean” value was found to be 1.10 fold DMSO.
`Cn1cc(Br)c2c(N)ncnc21` [EK-0205, Cn1cc(Br)c2c(N)ncnc12]: the figures for the activity at 50 µM in series [1] and in series [2] were 63% and 51%, respectively. The “Cell viability (fold DMSO) Mean” value in the series with Huh7.5 cells is recorded as 0.87 fold DMSO.
